From patent US20110142884A1, “Materials and Methods for Making Improved Micelle Compositions” (The Board of Trustees of the University of Illinois, priority 2002, published 2011)

Assays:
man = details: infusion in man for 10 hours; cited from earlier work
[1] = system: mice with collagen-induced arthritis (CIA); assay: Collagen induced arthritis (CIA) in mice; type: in vivo; details: for hind paw thickness (PT) increase: tail vein
Procedure: SSM were prepared as described above in previous examples and by Onyuksel et al. (1999). VIP (1.0 nmol) was incubated with SSM for 2 h at 25° C. Size of VIP-SSM was determined by dynamic light-scattering. The effects of dilution on VIP-SSM were determined by size exclusion chromatography (SEC). Effects of VIP-SSM (1.0 nmol) and VIP in buffer (1.0 nmol and 5.0 nmol) were evaluated in mice with CIA treated on day 22 or 34 post-CIA induction. Clinical arthritis score (CAS) and hind paw thickness (PT) were recorded until day 45 post induction.
VIP, VIP-SSM (each, 0.5, 1.0 & 5.0 nmol), empty micelles, and buffer were injected into the tail vein on day 22 or day 34 post-CIA induction. Clinical arthritis score (CAS) and hind paw thickness (PT) were recorded until day 45 post-CIA induction. Systemic arterial pressure (SAP) was recorded by tail cuff in restrained mice. […] CAS reductions were similar to PT after treatment with α-helix VIP- and aqueous VIP-treated mice.

[2] = system: mice with collagen-induced arthritis (CIA); details: repeated intraperitoneal administration, 5.0 nmol, Delgado et al. 2001; cited from earlier work
[3] = system: second order arterioles of the hamster cheek pouch microcirculation; assay: Hamster cheek pouch microcirculation, arteriolar diameter during suffusion; type: in vivo; details: native VIP alone, suffusion
Procedure: According to this example, the vasorelaxant effects of VIP in a SSM were determined according to the following method. Specifically, adult male golden Syrian hamsters were purchased from Sasco (Omaha, Nebr.). Adult male hamsters with spontaneous hypertension and their normotensive controls were purchased from the Canadian Hybrid Farms (Halls Harbour, NS, Canada). Hypertensive animals have been identified after cross-breeding of hamsters with hereditary cardiomyopathy and normal golden Syrian hamsters. These albino animals have previously been used in our laboratory (Rubinstein et al., Biochem. Biophys. Res. Commun. 183:1117-1123 (1992); Artwohl et al., FASEB J. 10:A629 (1996)). Animals were anesthetized with pentobarbital sodium (6 mg/100 g body weight, i.p.). A tracheotomy was performed to facilitate spontaneous breathing. A femoral vein was cannulated to inject supplemental anesthesia during the experiment (2-4 mg/100 g body weight/h). Body temperature was maintained constant (37-38° C.) and monitored via heating pad and a feed back controller throughout the experiment.
The bioactivity of the VIP in SSM by diffusing it in situ was determined by visualization of the microcirculation of the hamster cheek pouch. The microcirculation of the cheek pouch was visualized locally by a method previously developed in our laboratory (Suzuki et al., Life Sci. 57:1451-1457 (1995); Suzuki et al., Am. J. Physiol. 271:R393-R397 (1996); and Suzuki et al., Am. J. Physiol. 271:H282-H287 (1996)). Briefly, the left cheek pouch was spread over a small plastic baseplate, and an incision was made in the outer skin to expose the cheek pouch membrane. The connective avascular tissue layer was removed, and a plastic chamber was placed over the baseplate and secured in place by suturing the skin around the upper chamber. This forms a triple-layered complex: the baseplate, the exposed cheek pouch membrane, and the upper chamber. After these initial procedures, the hamster is transferred to a heated microscope stage. The chamber was connected to a reservoir containing warmed bicarbonate buffer (37-38° C.) that allowed continuous suffusion of the cheek pouch. The buffer was bubbled continuously with 95% N2-5% CO2 (pH 7.4). […]
The cheek pouch microcirculation was epi-illuminated with a 100-W mercury light source and viewed through a microscope (Nikon, Tokyo, Japan) at a magnification of ×40. […] The inner-wall diameter of second order arterioles ([…]), which modulated vascular resistance in the cheek pouch, (Raud, Acta Physiol. Scand. (Suppl.) 578:1-58 (1989); Suzuki et al., Life Sci. 57:1451-1457 (1995); Suzuki et al., Am. J. Physiol. 271:R393-R397 (1996)) was measured from the video display of the microscope image using a videomicrometer (VIA 100; Boeckeler Instruments, Tucson, Ariz.). […]

For vasoactive intestinal peptide [VIP], the “increase of forearm blood flow” value (man) is given as 270%, the “reduction of total peripheral resistance” value (man) is given as 30% and the “hind paw thickness (PT) increase” value ([1]; 0.5 nmol dose) is given as 85.63±6.20%. For the same substance, the “hind paw thickness (PT) increase” value ([1]; 1.0 nmol dose) was 78.66±6.44%, the “progression of CIA (PT and CAS data)” value ([1]; 1.0 nmol, treated on day 22) was 78.09% and the “progression of CIA (PT and CAS data)” value ([1]; 1.0 nmol, treated on day 34) was 96.55%. For the same substance, the “hind paw thickness (PT) increase” value ([1]; 5.0 nmol dose) was 46.69±6.92%, the “progression of CIA (PT and CAS data)” value ([1]; 5.0 nmol, treated on day 22) was 56.37% and the “progression of CIA (PT and CAS data)” value ([1]; 5.0 nmol, treated on day 34) was 69.71%. For the same substance, the “effect on CIA” value [2] was “ameliorates CIA” and the “effects on the arteriolar diameter” value [3] was “no significant effects”.
